# Data from patent US12414919B2, “Method for preparing biocompatible polymer-based apixaban-loaded microspheres” (HLB PHARMACEUTICAL CO., LTD., priority 2019, dated 2025).
# Tests used:
# [1] = Dissolution of Apixaban in non-halogen organic solvents; assay type: physicochemical; conditions: 25 mg Apixaban in 1 mL of each of ethyl acetate, ethyl formate, methyl propionate, ethanol; stirred
# Method: 25 mg of Apixaban was added to 1 mL of each of ethyl acetate, ethyl formate, methyl propionate, and ethanol and stirred. As a result, it was confirmed that Apixaban was not dissolved in the four organic solvents (FIG. 1).
# [2] = Dissolution of Apixaban in halogen organic solvent (dichloromethane); assay type: physicochemical; conditions: 25 mg Apixaban in 1 mL dichloromethane, after 12 hours
# Method: 25 mg of Apixaban was dissolved in 1 mL, of dichloromethane, and the mixture was photographed after 12 hours.
# [3] = oral administration; cited from earlier work
structure (smiles),measurement,setting,value
COc1ccc(-n2nc(C(N)=O)c3c2C(=O)N(c2ccc(N4CCCCC4=O)cc2)CC3)cc1 [Apixaban],Dissolution of Apixaban in non-halogen organic solvents,[1],not dissolved
same,Dissolution / recrystallization of Apixaban in dichloromethane,[2],Apixaban crystals were formed
same,bioavailability,[3],about 50%
